Results on eight molecules are retold here after ChEMBL document CHEMBL1201862, “PubChem BioAssay data set” (2004).

The test system of experiment [1] is A-375. Put plainly: proliferation inhibition in MITF-low A375 cells – cell-based, cherry-pick samples, set 2, counter-screen for MITF modulator project, dose response (AID 540335). In kind it is functional. As to conditions: Homo sapiens.
Experiment [2] concerns A-375. Put plainly: MITF: Counter assay: A375 proliferation Measured in Cell-Based System Using Plate Reader - 2084-03_Inhibitor_Dose_DryPowder_Activity. [Related pubchem assays (depositor defined):AID488944]. Particulars: Homo sapiens. In kind it is functional.
For experiment [3], the target named is CAAX prenyl protease 2 (Homo sapiens, UniProt Q9Y256). The experiment is described as follows: inhibition of Ras-converting CAAX protease Rce1 – biochemical, yeast membranes, quenched-peptide fluorescence, cherry-pick, dose response (AID 588849).
For experiment [4], the target named is Glyceraldehyde-3-phosphate dehydrogenase (Homo sapiens, UniProt P04406).
Experiment [5] concerns the target T1, Dual specificity protein phosphatase 6 (Rattus norvegicus, UniProt Q64346).
T1 sequence (Q64346 whole entry): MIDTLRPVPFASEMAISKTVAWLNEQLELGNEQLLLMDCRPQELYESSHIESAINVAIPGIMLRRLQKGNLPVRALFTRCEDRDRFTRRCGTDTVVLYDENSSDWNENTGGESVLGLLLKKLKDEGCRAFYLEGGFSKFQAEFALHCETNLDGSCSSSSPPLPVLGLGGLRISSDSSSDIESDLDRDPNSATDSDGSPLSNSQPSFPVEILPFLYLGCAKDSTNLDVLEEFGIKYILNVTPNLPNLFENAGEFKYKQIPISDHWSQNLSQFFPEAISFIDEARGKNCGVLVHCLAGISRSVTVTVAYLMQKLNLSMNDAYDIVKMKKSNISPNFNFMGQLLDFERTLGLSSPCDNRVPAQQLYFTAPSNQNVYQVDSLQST
In kind it is functional.

The target in experiment [6] is T2, Tyrosine-protein phosphatase non-receptor type 7 (Homo sapiens, UniProt P35236).
T2 sequence (P35236 whole entry): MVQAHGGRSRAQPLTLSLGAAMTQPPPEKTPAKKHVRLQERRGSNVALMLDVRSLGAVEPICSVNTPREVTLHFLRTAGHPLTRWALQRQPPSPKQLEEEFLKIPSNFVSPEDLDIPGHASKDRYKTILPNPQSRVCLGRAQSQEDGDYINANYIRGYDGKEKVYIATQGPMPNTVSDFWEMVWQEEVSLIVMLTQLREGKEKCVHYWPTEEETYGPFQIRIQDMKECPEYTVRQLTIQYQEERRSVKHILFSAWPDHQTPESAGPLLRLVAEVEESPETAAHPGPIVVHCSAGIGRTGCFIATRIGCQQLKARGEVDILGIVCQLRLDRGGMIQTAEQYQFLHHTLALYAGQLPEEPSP
In kind it is functional.

The target of experiment [7] is T1, Dual specificity protein phosphatase 6.
In experiment [8] the target is Phospholipase D2 (Homo sapiens, UniProt O14939). Put plainly: cellular phospholipase D2 inhibition IC50 – cell-based, dose response (AID 602147).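 Further: cellular assay in HEK293 cells overexpressing GFP-tagged PLD2.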 In kind it is functional.
Experiment [9] concerns the target T3, Phospholipase D1 (Homo sapiens, UniProt Q13393).
T3 sequence (Q13393 whole entry): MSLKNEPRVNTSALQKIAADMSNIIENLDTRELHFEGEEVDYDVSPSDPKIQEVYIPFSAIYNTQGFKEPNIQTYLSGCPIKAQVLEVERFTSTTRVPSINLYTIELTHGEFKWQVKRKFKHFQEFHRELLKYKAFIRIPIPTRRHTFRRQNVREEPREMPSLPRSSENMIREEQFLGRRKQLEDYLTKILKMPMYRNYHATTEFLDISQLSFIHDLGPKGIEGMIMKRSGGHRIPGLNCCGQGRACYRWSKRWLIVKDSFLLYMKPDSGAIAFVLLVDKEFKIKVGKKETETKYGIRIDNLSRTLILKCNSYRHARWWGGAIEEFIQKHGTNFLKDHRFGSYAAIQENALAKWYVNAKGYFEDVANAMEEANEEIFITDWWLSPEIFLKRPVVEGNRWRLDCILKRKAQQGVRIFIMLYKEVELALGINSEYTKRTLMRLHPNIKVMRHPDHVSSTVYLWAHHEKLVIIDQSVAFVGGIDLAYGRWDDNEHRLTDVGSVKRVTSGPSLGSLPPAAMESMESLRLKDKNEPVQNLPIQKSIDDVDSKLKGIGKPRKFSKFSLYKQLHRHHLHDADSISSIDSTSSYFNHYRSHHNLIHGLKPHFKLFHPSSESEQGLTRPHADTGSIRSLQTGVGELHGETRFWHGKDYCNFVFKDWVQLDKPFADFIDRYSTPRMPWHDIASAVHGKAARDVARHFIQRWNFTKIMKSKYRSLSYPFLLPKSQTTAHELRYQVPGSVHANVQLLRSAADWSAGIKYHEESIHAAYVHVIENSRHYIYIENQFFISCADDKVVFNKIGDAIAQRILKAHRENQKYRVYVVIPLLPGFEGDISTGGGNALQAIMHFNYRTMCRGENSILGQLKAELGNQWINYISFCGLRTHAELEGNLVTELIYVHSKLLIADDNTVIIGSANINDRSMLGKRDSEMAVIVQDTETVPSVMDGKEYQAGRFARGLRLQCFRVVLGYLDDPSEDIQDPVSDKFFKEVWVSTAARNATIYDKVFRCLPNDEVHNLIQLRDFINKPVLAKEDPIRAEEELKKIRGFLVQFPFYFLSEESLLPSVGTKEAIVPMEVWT
The experiment is described as follows: cellular phospholipase D1 inhibition IC50 – cell-based, dose response (AID 602151).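 Further: cellular PLD1 assay in Calu-1 cells stimulated with PMA.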 In kind it is functional.

The nature of experiment [10]: HEK-293T viability loss, compound-treated – cell-based, uHTS hits, cytotoxicity control for B/T-cell NF-kB inhibitor project, dose response (AID 489019).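 Further: IC50 reflects cytotoxicity as loss of cell viability.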 In kind it is functional.
Experiment [11] relates to Jurkat. Put plainly: blockers of NF-kB activation in T cells – Jurkat, luciferase reporter, luminescence, B- and T-cell, dose response (AID 489004).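 Further: NF-kB luciferase reporter Jurkat cells stimulated with PMA plus ionomycin.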 Particulars: Homo sapiens. In kind it is functional, cell-based.
For experiment [12], the system named is INS1. Put plainly: INS-1E survival protection against cytokine death – cell-based, luminescence, retest, dose response (AID 449756).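 Further: cell death triggered by IL-1 beta plus TNF-alpha plus IFN-gamma mixture; protective hits raise ATP signal compared with cytokine alone wells.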 In kind it is functional. As to conditions: Rattus norvegicus.
The target in experiment [13] is T4, CAAX prenyl protease 2 (Saccharomyces cerevisiae S288c, UniProt Q03530).
T4 sequence (Q03530 whole entry): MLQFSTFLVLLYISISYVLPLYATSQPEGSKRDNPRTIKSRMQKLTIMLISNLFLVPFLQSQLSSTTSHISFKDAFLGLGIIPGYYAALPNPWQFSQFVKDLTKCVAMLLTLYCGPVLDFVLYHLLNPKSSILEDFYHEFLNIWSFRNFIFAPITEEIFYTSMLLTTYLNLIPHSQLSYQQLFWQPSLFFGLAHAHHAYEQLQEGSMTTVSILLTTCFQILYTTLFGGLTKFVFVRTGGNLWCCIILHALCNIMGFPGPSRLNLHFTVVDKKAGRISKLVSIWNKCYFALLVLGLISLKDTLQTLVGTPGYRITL
In kind it is biochemical.

The target in experiment [14] is CAAX prenyl protease 1 (Saccharomyces cerevisiae S288c, UniProt P47154). The experiment is described as follows: yeast CAAX protease Ste24 inhibition – biochemical, S. cerevisiae, plate reader, cherry-pick, dose response (AID 488815).

The source made the active and inactive calls.

Chain of Phospholipase D2 (O14939 whole entry): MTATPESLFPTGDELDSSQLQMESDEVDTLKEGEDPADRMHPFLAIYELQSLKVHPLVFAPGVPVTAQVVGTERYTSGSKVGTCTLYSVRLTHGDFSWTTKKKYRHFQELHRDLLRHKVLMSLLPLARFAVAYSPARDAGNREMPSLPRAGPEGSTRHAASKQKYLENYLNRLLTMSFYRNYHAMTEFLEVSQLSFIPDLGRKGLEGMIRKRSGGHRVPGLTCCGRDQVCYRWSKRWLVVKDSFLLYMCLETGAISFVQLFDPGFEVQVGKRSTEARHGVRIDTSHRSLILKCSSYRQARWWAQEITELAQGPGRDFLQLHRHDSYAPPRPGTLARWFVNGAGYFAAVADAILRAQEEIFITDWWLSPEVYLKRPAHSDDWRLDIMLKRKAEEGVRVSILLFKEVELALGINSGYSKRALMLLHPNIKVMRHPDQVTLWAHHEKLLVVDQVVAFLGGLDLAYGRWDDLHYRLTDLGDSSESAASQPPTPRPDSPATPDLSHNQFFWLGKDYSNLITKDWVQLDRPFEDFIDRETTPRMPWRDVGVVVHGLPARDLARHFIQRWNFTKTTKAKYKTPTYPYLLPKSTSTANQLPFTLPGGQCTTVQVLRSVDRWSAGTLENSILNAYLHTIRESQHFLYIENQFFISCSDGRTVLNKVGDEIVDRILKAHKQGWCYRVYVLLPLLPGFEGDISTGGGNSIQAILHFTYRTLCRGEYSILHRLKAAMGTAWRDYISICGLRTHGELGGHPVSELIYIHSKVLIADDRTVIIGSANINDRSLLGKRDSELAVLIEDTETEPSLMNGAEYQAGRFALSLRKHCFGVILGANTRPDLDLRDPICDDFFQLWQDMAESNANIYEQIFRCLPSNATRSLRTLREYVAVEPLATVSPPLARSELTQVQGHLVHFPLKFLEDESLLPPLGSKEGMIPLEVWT
Chain of CAAX prenyl protease 2 (Homo sapiens, UniProt Q9Y256) (Q9Y256 whole entry): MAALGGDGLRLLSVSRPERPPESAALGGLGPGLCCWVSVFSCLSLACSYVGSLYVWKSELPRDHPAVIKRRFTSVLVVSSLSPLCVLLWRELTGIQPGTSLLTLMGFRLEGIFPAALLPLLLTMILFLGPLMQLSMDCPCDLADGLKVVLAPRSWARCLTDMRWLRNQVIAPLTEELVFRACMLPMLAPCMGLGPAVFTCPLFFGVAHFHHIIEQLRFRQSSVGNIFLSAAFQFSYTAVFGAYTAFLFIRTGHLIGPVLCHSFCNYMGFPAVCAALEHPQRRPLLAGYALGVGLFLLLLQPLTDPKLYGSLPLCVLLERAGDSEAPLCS
Chain of Glyceraldehyde-3-phosphate dehydrogenase (P04406 whole entry): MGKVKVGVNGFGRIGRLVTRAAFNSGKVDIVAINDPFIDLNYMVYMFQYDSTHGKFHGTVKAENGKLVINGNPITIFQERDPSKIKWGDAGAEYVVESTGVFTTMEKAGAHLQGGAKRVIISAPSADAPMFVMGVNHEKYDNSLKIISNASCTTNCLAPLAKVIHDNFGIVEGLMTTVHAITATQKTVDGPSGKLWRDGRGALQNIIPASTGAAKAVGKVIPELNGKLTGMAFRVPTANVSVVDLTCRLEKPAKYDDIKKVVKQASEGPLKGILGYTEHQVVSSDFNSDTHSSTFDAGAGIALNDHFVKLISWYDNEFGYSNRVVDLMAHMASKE
Chain of CAAX prenyl protease 1 (P47154 whole entry): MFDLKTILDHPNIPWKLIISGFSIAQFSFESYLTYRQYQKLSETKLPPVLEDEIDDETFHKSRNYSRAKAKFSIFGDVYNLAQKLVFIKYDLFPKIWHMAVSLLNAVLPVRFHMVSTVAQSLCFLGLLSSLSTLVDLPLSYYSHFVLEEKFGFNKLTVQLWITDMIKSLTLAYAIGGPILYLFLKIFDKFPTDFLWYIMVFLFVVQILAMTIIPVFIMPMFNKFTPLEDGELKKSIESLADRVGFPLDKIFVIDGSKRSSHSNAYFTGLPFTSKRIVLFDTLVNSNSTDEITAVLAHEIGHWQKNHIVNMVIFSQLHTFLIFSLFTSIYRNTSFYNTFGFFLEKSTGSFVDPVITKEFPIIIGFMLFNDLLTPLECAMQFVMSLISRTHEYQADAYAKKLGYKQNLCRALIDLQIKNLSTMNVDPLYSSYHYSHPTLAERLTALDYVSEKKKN

Turning to `O=C(Nc1ccc2nn(-c3ccccc3)nc2c1)c1ccco1`, the half-maximal activity concentration (AC50) in [1] and in experiment [2] was > 35 µM (active) throughout.

On to `O=S(=O)(O)c1cc2oc(-c3ccccc3)nc2c2ccccc12`, for which, in experiment [3], the AC50 was 1.35 µM (active).

On to `Cc1ccc(-n2c(=O)[nH]c(=O)n([C@H](C(N)=O)C(C)C)c2=O)cc1`, for which the IC50 in [4] was > 100 µM (not active); in experiment [5], > 100 µM (inactive); in [6] it was > 100 µM (not active); in experiment [7], > 100 µM (inactive).

In the case of `O=C(NCCN1CCC2(CC1)C(=O)NCN2c1ccccc1)c1cccc(F)n1`, the values for the IC50 in experiment [8] and in experiment [9] were 4.46 µM (active) and 12 µM (active), respectively.

With `C[C@@H](CN1CCC(n2c(=O)[nH]c3ccccc32)CC1)NC(=O)c1ccc(Cl)c(Cl)c1`, the results for the IC50 in experiment [8] and in experiment [9] were 0.428 µM (active) and 0.023 µM (active), respectively.

For `Cc1cc(Cl)c(S(=O)(=O)N2CCN(c3ccc(F)cc3)CC2)cc1OCC(=O)NC1CCCCC1`, the IC50 in [10] and in [11] was > 80 µM (inactive) throughout. Also, in [12], the half-maximal activity concentration (AC50) is 4.82 µM (active).

With `CCOC(=O)c1[nH]c2ccc(OC)cc2c1NC(=O)CN1CCC2(CC1)OCCO2`, the AC50 in experiment [13] was 67.8 µM (active); in experiment [3] it was 15.4 µM (active); in experiment [14], 6.79 µM (active).

On to `O=C(Nc1ccc(Cl)cc1)OCc1ccccn1`, for which the AC50 in experiment [1] and in experiment [2] was > 35 µM (active) in each case.
